Results on five compounds are retold here after US20250339567A1, “COMPOUNDS WITH IMPROVED PHARMACOKINETICS FOR IMAGING AND THERAPY OF CANCER” (priority 2019, published 2025).

Entries after “also recorded” stand apart in the source; their conditions may differ. Starred links: 1 amine or outer side, 2 acyl side, 3 side chain; linkers in the order of their positions; H or OH if unused. Non-standard residues stand in square brackets, D forms with d. Residues, ends and D or L forms follow the SMILES beside them. *: point of attachment. DOTAGA = O=C(O)CN1CCN(CC(=O)O)CCN(C(CCC(=O)*)C(=O)O)CCN(CC(=O)O)CC1; Benzoyl(4-SiFtBu2) = CC(C)(C)[Si](F)(c1ccc(C(=O)*)cc1)C(C)(C)C; d(γGlu) = O=C(O)[C@@H](CCC(=O)[*:2])N[*:1]; Sta = CC(C)C[C@H](N)[C@@H](O)CC(=O)O; X1 = O=C(CN1CCC(N[*:1])CC1)[*:2]; dOrn = NCCC[C@@H](N)C(=O)O; dDap = NC[C@@H](N)C(=O)O; CO = O=C([*:1])[*:2]

Series [1] has as its target T1, GRPR (Homo sapiens, UniProt P30550).
T1 construct: endogenous in cells; host or cells: PC-3 cells
Nature of the series: Determination of GRPR affinity (IC50), competition with [D-3-[125I]I-Tyr6]MJ9 on PC-3 cells. The class given is binding. The following applies: 2 h, r.t. How it is done:
The reference ligand for IC50 studies ([D-3-[^125I]I-Tyr^6]MJ9) is prepared according to a previously published procedure. Briefly, 0.2 mg of [D-Tyr^6]MJ9 are dissolved in 20 μL Tracepur water and 280 μL TRIS buffer (25 mm TRIS HCl, 0.4 M NaCl, pH=7.9). After addition of the solution to a vial containing 150 μg Iodo-Gen® (1,3,4,6-Tetrachloro-3α,6α-diphenylglycouril, surface-bound), 5.0 μL (16 MBq) [^125I]Nal(74 TBq/mmol, 3.1 GBq/mL, 40 mM NaOH, Hartmann Analytic, Braunschweig, Germany) are added.
The GRPR-positive PC-3 cells are cultured in Dublecco modified Eagle medium/Nutrition Mixture F-12 with Glutamax-I (1:1) (Invitrigon), supplemented with 10% fetal calf serum and maintained at 37° C. in a humidified 5% CO2 atmosphere.
After removal of the culture medium, the cells are washed once with 500 μL of HBSS (Hank's balanced salt solution, Biochrom, Berlin, Germany, with addition of 1% bovine serum albumin (BSA)) and left in 200 μL HBSS (1% BSA) for 9 min at room temperature for equilibration. Next, 25 μL per well of solutions, containing either HBSS (1% BSA) as control or the respective ligand in increasing concentration (10^−10 M-10^−4 M in HBSS), are added with subsequent addition of 25 μL of [D-3-[^125I]I-Tyr^6]MJ9 (2.0 nM) in HBSS (1% BSA).
All experiments are performed in triplicate for each concentration. After 2 h incubation at room temperature, the experiment is terminated by removal of the medium and consecutive rinsing with 300 μL of HBSS. The media of both steps are combined in one fraction and represent the amount of free radiolabeled reference. Afterwards, the cells are lysed with 300 μL of 1 M NaOH for at least 15 min and united with the 300 μL NaOH of the following washing step. Quantification of bound and free radiolabeled reference is accomplished in a γ-counter.
IC50 determination for each ligand was repeated twice.

Series [2] deals with PC-3 cells. Put plainly: Internalization into PC-3 cells. The class given is cell-based. The following applies: c = 1 nM, 1 h, 37° C., corrected for non-specific binding (10^-3 M [natLu]RM2). How it is done: For internalization studies, PC-3 cells are harvested 24±2 h before the experiment and seeded in 24-well plates (1.5×10^5 cells/well, 1 mL). Subsequent to the removal of the culture medium, the cells are washed once with 500 μL DMEM/F-12 (5% BSA) and left to equilibrate at 37° C. for at least 15 min in 200 μL DMEM/F-12 (5% BSA). […] Next, 25 μL of the ^125I/^177Lu-labeled GRPR ligand (10 nm) is added and the cells are incubated at 37° C. for 60 min.
The experiment is terminated by placing the 24-well plate on ice for 1 min and consecutive removal of the medium. Each well is rinsed with 300 μL ice-cold PBS and the fractions from these first two steps are combined, representing the amount of free radiolabeled reference. Removal of surface bound activity is accomplished by incubation of the cells with 300 μL of ice-cold Acid Wash solution (0.02 M NaOAc, pH=5.0) for 10 min at room temperature and rinsed again with 300 μL of ice-cold PBS. The internalized activity is determined by incubation of the cells in […] NaOH (1 M) and the combination with the fraction of a subsequent washing step with 300 μL NaOH (1 M).
Each experiment (control and blockade) is performed sixfold. Free, surface bound and internalized activity is quantified in a γ-counter. Data is corrected for non-specific internalization.

A short description of series [3]: n-Octanol-PBS distribution coefficient, log D7.4. It counts as physicochemical. The following applies: for log D7.4 (n = 6), ^99mTc-labeled: n-octanol/PBS pH 7.4. The procedure:
Approximately 1 MBq of the labeled tracer was dissolved in 1 mL of a 1:1 mixture (v/v) of phosphate buffered saline (PBS, pH=7.4) and n-octanol in an Eppendorf tube. After vigorous mixing of the suspension for 3 min at room temperature, the vial was centrifuged at 9000 rpm for 5 min (Biofuge 15, Heraus Sepatech, Osterode, Germany) and 200 μL aliquots of both layers were measured in a γ-counter. The experiment was repeated at least four times.

The test system of series [4] is PC-3 tumor-bearing CB17-SCID mice. Put plainly: Biodistribution in PC-3 tumor-bearing CB17-SCID mice. It counts as in vivo. The procedure: All animal experiments were conducted in accordance with general animal welfare regulations in Germany (German animal protection act, as amended on 18 May 2018, Art. 141 G v. 29.3.2017 | 626, approval no. ROB-55.2-2532.Vet_02-18-109) and the institutional guidelines for the care and use of animals. To establish tumor xenografts, PC-3 cells (5×10^6 cells per 200 μL) were suspended in a 1:1 mixture (v/v) of Dulbecco's modified eagle's medium/Ham's F-12 (DMEM/F-12) with Glutamax-I (1:1) and Cultrex® Basement Membrane Matrix Type 3 (Trevigen Inc., Gaithersburg, MD, USA) and inoculated subcutaneously onto the right shoulder of 6-10 weeks old female CB17-SCID mice (Charles River Laboratories International Inc., Sulzfeld, Germany). Mice were used for experiments when tumor volume was 125-500 mm^3 (2-3 weeks after inoculation).
Approximately 1-5 MBq ([…]) of the radiolabeled GRPR antagonists were injected into the tail vein of PC-3 tumor-bearing mice and sacrificed at 1, 4 or 24 h p.i. (n=4). Selected organs were removed, weighted and measured in a γ-counter (Perkin Elmer, Waltham, MA, USA).

Series [5] is described as follows: Plasma studies: metabolic stability in vitro in human plasma (radio RP-HPLC). It counts as in vitro ADME. The following applies: 37° C. The method in brief:
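Radiotracer incubated in human or murine plasma at 37° C. immediately after labeling, for 72±2 h or 6±0.5 h. Proteins precipitated with ice-cold EtOH and MeCN and centrifuged. Supernatant analysed by radio RP-HPLC.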

Series [6] in a line: Plasma studies: metabolic stability in vitro in murine plasma (radio RP-HPLC). The class given is in vitro ADME. The following applies: 37° C. The procedure: Metabolic stability in vitro was determined applying a procedure published by Linder et al. that was slightly modified. Immediately after labeling, human (200 μL) or murine (100 μL) plasma was added and the mixture was incubated at 37° C. for 72±2 h (or 6±0.5 h). Proteins were precipitated by treatment with ice-cold EtOH (150 μL [human], 100 μL [murine]) and ice-cold MeCN (450 μL [human], 300 μL [murine]), followed by centrifugation for 20 min at 13000 rpm. The supernatants were decanted and further analyzed using radio RP-HPLC.
Therefore, only 100 μL of murine plasma was added to the tracer solution (final volume of 200 μL) immediately after labeling was finished. According to Linder et al. (Bioconjugate Chem. 20, 1171-1178 (2009)), metabolism is more rapid in murine than in human plasma for which reason the experiment was terminated after incubation at 37° C. for 6±0.5 h (FIGS. 5 and 6). Nevertheless, due to a smaller volume the murine mixture was additionally examined after incubation at 37° C. for 72±2 h (FIGS. 7 and 8).

[7] abbreviates: human plasma, 72±2 h, FIGS. 1-4.

T1 sequence (P30550 whole entry): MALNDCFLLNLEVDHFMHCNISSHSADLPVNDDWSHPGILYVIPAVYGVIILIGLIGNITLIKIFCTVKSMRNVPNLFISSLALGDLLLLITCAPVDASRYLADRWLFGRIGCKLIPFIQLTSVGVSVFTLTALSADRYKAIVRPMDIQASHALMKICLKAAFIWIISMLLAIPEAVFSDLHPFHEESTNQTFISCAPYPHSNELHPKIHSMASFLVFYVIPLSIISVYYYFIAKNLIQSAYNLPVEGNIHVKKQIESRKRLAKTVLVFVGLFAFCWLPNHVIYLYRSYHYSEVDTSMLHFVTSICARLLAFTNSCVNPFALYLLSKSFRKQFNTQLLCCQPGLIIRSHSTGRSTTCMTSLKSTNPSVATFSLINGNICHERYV

Regarding `CC(C)C[C@H](NC(=O)C[C@H](O)[C@H](CC(C)C)NC(=O)[C@H](Cc1c[nH]cn1)NC(=O)CNC(=O)[C@@H](NC(=O)[C@H](C)NC(=O)[C@H](Cc1c[nH]c2ccccc12)NC(=O)[C@H](CCC(N)=O)NC(=O)[C@@H](Cc1ccc(O)c(I)c1)NC(=O)CN1CCC(N)CC1)C(C)C)C(N)=O` [[D-3-I-Tyr^6]MJ9, reference compound], in series [1] (IC50 ± SD (n = 3), Table 3, [D-3-[125I]I-Tyr6]MJ9 (c = 0.2 nM), HBSS + 1% BSA), the IC50 was 1.33 ± 0.36 nM. The “IC50 ± SD (n = 3)” value in series [1] (Table 3, [D-3-[125I]I-Tyr6]MJ9 (c = 0.2 nM), HBSS + 1% BSA) is “particularly high affinity”. The “Specific internalization (mean ± SD, n = 6)” value in series [2] was 3.57 ± 0.57 % of the used activity.

Turning to `CC(C)C[C@H](NC(=O)C[C@H](O)[C@H](CC(C)C)NC(=O)[C@H](Cc1c[nH]cn1)NC(=O)CNC(=O)[C@@H](NC(=O)[C@H](C)NC(=O)[C@H](Cc1c[nH]c2ccccc12)NC(=O)[C@H](CCO)NC(=O)[C@@H](Cc1ccccc1)NC(=O)CN1CCC(NC(=O)C(CNCCN)CNCCN)CC1)C(C)C)C(N)=O` [N4-[Hse^7]MJ9], in series [1] (IC50 [nM] ± SD (n = 3), Table 5, non-labeled N4 ligands, [D-3-[125I]I-Tyr6]MJ9 (c = 0.2 nM)), the IC50 was determined as 6.97 ± 1.84 nM. The “log D7.4 (n = 6), ^99mTc-labeled” value in series [3] was −1.26 ± 0.02. Further, the tumor-to-background ratios result in series [4] (mouse, in vivo) is “highest”.

As to `CC(C)C[C@H](NC(=O)C[C@H](O)[C@H](CC(C)C)NC(=O)[C@H](Cc1c[nH]cn1)NC(=O)CNC(=O)[C@@H](NC(=O)[C@H](C)NC(=O)[C@](C)(Cc1c[nH]c2ccccc12)NC(=O)[C@H](CCC(N)=O)NC(=O)[C@@H](Cc1ccccc1)NC(=O)CN1CCC(NC(=O)C(CNCCN)CNCCN)CC1)C(C)C)C(N)=O` [N4-[α-Me-Trp^8]MJ9], the “log D7.4 (n = 6), ^99mTc-labeled” value in series [3] was −1.29 ± 0.08. In addition, in series [4] (mouse, in vivo), the “tumor accumulation at 4 h p.i. compared to 1 h p.i.” value is recorded as “enhanced tumor accumulation compared to 1 h p.i”.

In the case of `CC(C)C[C@H](NC(=O)C[C@H](O)[C@H](CC(C)C)NC(=O)[C@H](Cc1c[nH]cn1)NC(=O)CNC(=O)[C@@H](NC(=O)[C@H](C)NC(=O)[C@H](Cc1c[nH]c2ccccc12)NC(=O)[C@H](CCC(N)=O)NC(=O)[C@@H](Cc1ccccc1)NC(=O)CN1CCC(NC(=O)[C@@H](CN)NC(=O)[C@@H](CCCN)NC(=O)[C@@H](CC(=O)O)NC(=O)[C@@H](CC(=O)O)NC(=O)[C@@H](CNC(=O)CCC(C(=O)O)N2CCN(CC(=O)O)CCN(CC(=O)O)CCN(CC(=O)O)CC2)NC(=O)[C@@H](CNC(=O)c2ccc([Si](F)(C(C)(C)C)C(C)(C)C)cc2)NC(=O)CC[C@@H](NC(=O)N[C@H](CCC(=O)O)C(=O)O)C(=O)O)CC1)C(C)C)C(N)=O` (stereo partly drawn) [GT50] ({dE-CO-d(γGlu)}-[dDap](Benzoyl(4-SiFtBu2))[dDap](DOTAGA)[dD][dD][dOrn][dDap][X1][dF]QWAVGH[Sta]L-NH2), the “IC50 [nM], ^natLu-labeled (n = 3)” value in series [1] (Table 6, natLu-labeled, [D-3-[125I]I-Tyr6]MJ9 (c = 0.2 nM)) was “comparable range”. Moreover, the “log D7.4 (n = 6), ^177Lu-labeled” value in series [3] (Table 6, 177Lu-labeled Bombesin-SiFA compounds) is recorded as −1.96 ± 0.15.

With `CC(C)C[C@H](NC(=O)C[C@H](O)[C@H](CC(C)C)NC(=O)[C@H](Cc1c[nH]cn1)NC(=O)CNC(=O)[C@@H](NC(=O)[C@H](C)NC(=O)[C@H](Cc1c[nH]c2ccccc12)NC(=O)[C@H](CCC(N)=O)NC(=O)[C@@H](Cc1ccccc1)NC(=O)CN1CCC(NC(=O)CN2CCN(CC(=O)O)CCN(CC(=O)O)CCN(CC(=O)O)CC2)CC1)C(C)C)C(N)=O` [RM2, DOTA-Pip-D-Phe-Gln-Trp-Ala-Val-Gly-His-Sta-Leu-NH2], the “Amount of intact tracer after incubation in human plasma for 72 ± 2 h (n = 2)” value in series [5] (Table 1C, 177Lu-labeled, 72 ± 2 h, in % (unit assumed)) is recorded as 33.5 ± 2.7. Besides, the “amount of intact tracer (in vitro stability), mean ± SD” value in series [5] (human plasma, 72±2 h) is 33.5±2.7%. In addition, the “metabolite, first-eluting peak in chromatogram” value stood at 54% in series [5] (setting [7]) and 2% in series [6] (6±0.5 h). Moreover, the figures for the “metabolite, second peak in chromatogram” value in series [5] (setting [7]) and in series [6] (6±0.5 h) were 9% and 2%, respectively. The “remaining intact tracer in chromatogram” value in series [5] (human plasma, 72±2 h, single chromatogram (FIGS. 1-4)) was 36%; in series [6] (6±0.5 h, FIGS. 5-6) it was 92%; in series [6] (72±2 h, FIGS. 7-8), 67%. In series [6] (6±0.5 h), the “metabolite, third peak in chromatogram” value was determined as 4%. In addition, the tumor retention entry in series [4] (177Lu-labeled, 24 h p.i., 100 pmol, FIGS. 11, 18, listed as [^177Lu]RM2) is on record as “high amounts; also recorded: higher tumor retention than the other derivatives of this series”.

A word on the IC50: it is the concentration that gives 50% inhibition.
